{"source": "patent US7361643B2", "about": "“Methods for inhibiting angiogenesis” (University of Puerto Rico, priority 2000, dated 2008)", "assay_type_in_all_cases": "cell-based", "key": {"[1]": {"system": "bovine adrenal medullary microvascular endothelial cells", "experiment": "Cell viability by trypan blue exclusion", "details": "under tunicamycin exposure (0.5-5.0 μg/ml, 32 hours)", "description": "(§1) For proliferation assay, cells were trypsinized and counted in a hemacytometer. Viability of cells was determined by trypan blue (0.4% (v/v)) exclusion. Statistical analysis was carried out by StatView II software (Macintosh). Quantitation of cellular differentiation was carried out by observing under a Nikon AlphaShot inverted microscope, and counting the number of capillary lumen-like structures in five randomly selected fields per sample.\nProliferation and Differentiation of Capillary Endothelial Cells: 2.0×10^4 cells were seeded per well in 24-well clusters in 1 ml complete EMEM containing 10% (v/v) serum and allowed to grow for 72 hours. Media were removed and the cells were washed twice with phosphate-buffer saline, pH 7.4 (PBS). […] Cells were routinely monitored by light microscopy. For proliferation assay, cells were trypsinized and counted in a hemacytometer. Viability of cells was determined by trypan blue (0.4% (v/v)) exclusion. […] Quantitation of cellular differentiation was carried out by observing under a Nikon AlphaShot inverted microscope, and counting the number of capillary lumen-like structures in five randomly selected fields per sample. The results were expressed as percent of its corresponding control after normalization of cell numbers. […] After FacSort calibration, 3000 events were counted per sample. […]"}, "[2]": {"system": "bovine adrenal medullary microvascular endothelial cells", "experiment": "Capillary endothelial cell growth and proliferation (cell count in hemacytometer)", "description": "Cells in the amount of 2.0×10^4 were seeded per well in 24-well clusters in 1 ml complete EMEM containing 10% (v/v) serum and allowed to grow for 72 hours. Media were removed and the cells were washed twice with phosphate-buffer saline, pH 7.4 (PBS). Cells were synchronized by incubating for 48 hours in 2 mM hydroxyurea in serum-free EMEM with glutamine (2 mM) and one-third of penicillin-streptomycin used in a regular culture condition, followed by incubating 24 hours in serum-free EMEM, as discussed in CAO et al., “Modified Method of Mammalian Cell Synchronization Improves Yield and Degree of Synchronization”, Exp. Cell Res., 193:405-410 (1991), the disclosure of which is herein incorporated by reference in its entirety.\nas §1\nSynchronized cells, as described in Example 1, were cultured at 37° C. in complete EMEM containing fetal bovine serum (1% (v/v), 2% (v/v), or 10% (v/v), or complete EMEM with 2% (v/v) fetal bovine serum containing 1 ng/ml −100 ng/ml of bFGF/FGF-2, or containing 0.5 μg/ml to 5.0 μg/ml tunicamycin (lot number 10922120-07 from Boehringer-Mannheim, Indianapolis, Ind.). In each case, the cellular growth and proliferation was monitored by trypan blue exclusion, by counting the cell number, and by their ability to process through the cell cycle by flow cytometry.\nProliferation and Differentiation of Capillary Endothelial Cells: 2.0×10^4 cells were seeded per well in 24-well clusters in 1 ml complete EMEM containing 10% (v/v) serum and allowed to grow for 72 hours. Media were removed and the cells were washed twice with phosphate-buffer saline, pH 7.4 (PBS). […] Cells were routinely monitored by light microscopy. For proliferation assay, cells were trypsinized and counted in a hemacytometer. Viability of cells was determined by trypan blue (0.4% (v/v)) exclusion. […] Quantitation of cellular differentiation was carried out by observing under a Nikon AlphaShot inverted microscope, and counting the number of capillary lumen-like structures in five randomly selected fields per sample. The results were expressed as percent of its corresponding control after normalization of cell numbers. Analysis of Cell Cycle by Flow Cytometry: Assessment of the cell cycle was determined by propidium iodide staining of fixed cell nuclei followed by flow cytometry in a FacSort (Beckton Dickinson) according to the method of Krishan (1975) as modified by Vindelov (1977), as discussed in KRISHAN, “Rapid Flow Cytometric Analysis of Mammalian Cell Cycle by Propidium Iodide Staining”, J. Cell Biol. 66:188-195 (1975); and VINDELOV, “Flow Cytometric Analysis of Nuclear DNA in Cells from Solid Tumors and Cell Suspensions”, Virchows Arch (B), 24:227-231 (1977), the disclosures of which are herein incorporated by reference in their entireties. […]"}, "[3]": {"system": "bovine adrenal medullary microvascular endothelial cells", "experiment": "Recovery of endothelial cells after tunicamycin treatment (parental line)", "description": "If the behavior of tunicamycin observed here is truly anti-angiogenic and is not due to cytotoxicity then cells must recover following a tunicamycin treatment that is shorter in duration, and the concentrations are moderate. […] On the other hand, the recovery was quantitative from a 24 hour exposure to tunicamycin at all concentrations (data not shown)."}}, "note": "“Also recorded” adds a separate entry of the source."}
{"substance": "tunicamycin", "values": [{"measurement": "total adherent cells viable", "setting": "[1]", "result": "more than 70%"}, {"measurement": "effect on cell number / proliferation", "setting": "[2]; 1 μg/ml tunicamycin, 2% (v/v) serum, monitored up to 5 days", "result": "reduced the cell proliferation; also recorded: number of cells started declining; also recorded: started declining, and almost disappeared"}, {"measurement": "reversibility of growth reduction", "setting": "[2]; tunicamycin 0.5-5.0 μg/ml", "result": "reversible"}, {"measurement": "recovery of cells in 5 days", "setting": "[3]; 10 ng/ml tunicamycin for 48 hours", "result": "full recovery"}, {"measurement": "recovery of cells", "setting": "[3]; 1 μg/ml tunicamycin for 48 hours", "result": "approximately 40%"}, {"measurement": "recovery of cells", "setting": "[3]; 10 μg/ml tunicamycin for 48 hours", "result": 12, "unit": "%"}, {"measurement": "recovery of cells", "setting": "[3]; 24 hour exposure to tunicamycin at all concentrations (data not shown)", "result": "quantitative"}, {"measurement": "recovery of cells", "setting": "[3]; tunicamycin for 72 hours or longer at 1 μg/ml or 10 μg/ml", "result": "never recovered"}]}
